In patent publication US20090220429A1, “METHOD AND A SYSTEM FOR ASSESSING NEUROLOGICAL CONDITIONS” (METIS CURA EHF, priority 2005, published 2009):

Assays:
[1] = tested on: subjects with dementia of the Alzheimer's type (AD group) and healthy control group; test: Clinical trial: EEG recorded before and after intravenous scopolamine as probe compound, feature pair classification of AD group versus control group; assay type: in vivo, human; conditions: for number of feature pair classifiers scoring 80% or better: features 33-48 (ratios before/after administration), P3-P4 montage, leave one out
Description: The effectiveness of the invention has been verified in a clinical trial. The participants in the trial were divided in two groups. One group consisted of 10 elderly subjects that have been diagnosed with, mild to moderate, dementia of the Alzheimer's type (AD group). A second age-matched group of 10 healthy individuals (i.e. non-AD individuals) was included as a control group.
The AD-group of participants consisted of patients in follow-up surveillance in the memory clinic at the Department of Geriatrics in Landspitali University Hospital, Reykjavik, Iceland. The group consisted of patients with Alzheimer's Disease (AD) (N=10) according to ICD-10. The other group consisted of normal Control participants (N=10), who were recruited from relatives of demented patients attending a day-care center.
To be eligible for participation in the study the subjects had to be in the range of 60-80 years of age, in good general health as determined by standard physical examination, with no acute changes on ECG. Exclusion criteria included smoking or any other use of tobacco (also excluding those that had stopped tobacco use about a week or less prior to the trial), treatment with neuroleptics and benzodiazepines, impaired liver- or kidney function, hypersensitivity to scopolamine, indication of drug, alcohol or medical abuse, glaucoma or possibility of raised intraocular pressure with administration of scopolamine. Prior to the screening visit the subjects were interviewed by phone. The AD subjects were selected from hospital records. All the AD patients in the follow-up program at the Memory Clinic were being treated with anti-dementia drugs. To minimize the variation between the subjects in the trial, the participants in the AD-group were selected from patients that were being treated with the same cholinesterase-inhibitor, Reminyl® (galantamine HBr).
Electroencephalographic neurophysiological signals were recorded from each of the subjects. The recording protocol was divided into two parts 105, 107 or sessions which were identical. In between the sessions the provided substance 101 substance scopolamine was administered intravenously, see FIG. 10. Within each section a two-minute period was recorded while the subject was instructed to be at rest with eyes closed. The data collected from these periods were used to estimate the individual features. The substance scopolamine was chosen based on its effects perturbing biophysical pathways that are known to deteriorate in subjects suffering from Alzheimer's disease. […]
The electroencephalographic signals were recorded using computerized measuring equipment, see FIG. 11. […]
These features were evaluated using a part of the first section where the subjects were at rest with eyes closed. […]

[2] = tested on: early DAT subjects compared to controls; conditions: 1-3 min post-injection; no significant group difference at baseline; cited from earlier work

Compound	classification performance ([1]; 3-NN scheme, FIG. 15, response feature set versus pre-administration feature set)	number of feature pair classifiers scoring 80% or better ([1]; 3-NN scheme, 4 with pre-administration features 1-16)	number of feature pair classifiers scoring 80% or better ([1]; SVM classification scheme, 5 with pre-administration features 1-16)	separation between the AD and control groups for a feature pair ([1]; ratio of feature values pre- and post-administration (FIG. 14) versus features before administration (FIG. 13))	beta power response in the frontal region, early DAT subjects compared to controls [2]
CN1[C@@H]2C[C@@H](OC(=O)[C@H](CO)c3ccccc3)C[C@H]1[C@@H]1O[C@@H]12 [scopolamine]	substantially enhanced classification performance	29	23	significantly better separation between the groups	
CCCC(C)C1(CC)C(=O)NC(=S)NC1=O (centres unmarked) [thiopental]					significantly smaller beta power response
